Values joined by “and” are separate entries in the source; they are usually repeats but may differ in a detail not shown here. Identical values can stand only once. Records with an inconclusive call do not appear.

The test relates to MX-1 breast xenograft, nude mice, tumor weight T/C. In words: NCI In Vivo Anticancer Drug Screen. Data for tumor model Human Mammary Carcinoma MX-1 Xenograft (intrarenal inoculation) in NU/NU Swiss (nude) mice. To be noted: endpoint: mean tumor weight change, higher = larger tumour. The method, then:
The antitumor activity of compounds was measured in mice bearing transplantable tumors. Survival or tumor size were measured and the results are expressed as the measurement made in the treated group (T) divided by the measurement made in the vehicle treated control group (C). The tumor model used in this assay is Human Mammary Carcinoma MX-1 Xenograft (intrarenal inoculation) in NU/NU Swiss (nude) mice
For orientation: Xenograft models place foreign cells or tissue in a host animal.

The mark [1] stands for this setting: dose: 300.0 mg/kg/injection, schedule: Q04DX003 (sc), vehicle: Klucel (hydroxypropylcellulose) (HPC).
The mark [2] stands for this setting: dose: 600.0 mg/kg/injection, schedule: Q04DX003 (sc), vehicle: Klucel (hydroxypropylcellulose) (HPC).
The mark [3] stands for this setting: dose: 1200.0 mg/kg/injection, schedule: Q04DX003 (sc), vehicle: Klucel (hydroxypropylcellulose) (HPC).
[4] abbreviates: dose: 300.0 mg/kg/injection, schedule: Q04DX003 (sc), vehicle: saline.
The mark [5] stands for this setting: dose: 600.0 mg/kg/injection, schedule: Q04DX003 (sc), vehicle: saline.
The mark [6] stands for this setting: dose: 1200.0 mg/kg/injection, schedule: Q04DX003 (sc), vehicle: saline.
The mark [7] stands for this setting: dose: 300.0 mg/kg/injection, schedule: Q04DX003 (sc), vehicle: saline with Tween-80.
The mark [8] stands for this setting: dose: 600.0 mg/kg/injection, schedule: Q04DX003 (sc), vehicle: saline with Tween-80.
[9] abbreviates: dose: 1200.0 mg/kg/injection, schedule: Q04DX003 (sc), vehicle: saline with Tween-80.

For the compound `COc1cc([C@@H]2c3cc4c(cc3[C@@H](OC3OC5CO[C@@H](c6cccs6)OC5C(O)C3O)[C@H]3COC(=O)[C@H]23)OCO4)cc(OC)c1O` (some centres not stated), the T/C is, setting by setting: (dose: 8.0 mg/kg/injection, schedule: Q01DX010 (sc), vehicle: saline) 67 % of control; (dose: 16.0 mg/kg/injection, schedule: Q01DX010 (sc), vehicle: saline) 60 % of control; (dose: 32.0 mg/kg/injection, schedule: Q01DX010 (sc), vehicle: saline) 96 % of control; (dose: 64.0 mg/kg/injection, schedule: Q01DX010 (sc), vehicle: saline) 44 % of control; (dose: 66.0 mg/kg/injection, schedule: Q01DX010 (sc), vehicle: saline) 55 % of control; (dose: 132.0 mg/kg/injection, schedule: Q01DX010 (sc), vehicle: saline) 34 % of control. In addition, the T/C was 40 % of control (dose: 264.0 mg/kg/injection, schedule: Q01DX010 (sc), vehicle: saline) and 79 % of control (dose: 528.0 mg/kg/injection, schedule: Q01DX010 (sc), vehicle: saline).
Take `OC1CCCC2CCC[N-]C12.OC1CCCC2CCC[N-]C12.[Mn+2]` (configuration not stated): the T/C is 87 % of control under setting [1]; 108 % of control under setting [2]; 65 % of control under setting [3]; 73 % of control (dose: 2400.0 mg/kg/injection, schedule: Q04DX003 (sc), vehicle: Klucel (hydroxypropylcellulose) (HPC)).
As to `O=NN(CCCl)C(=O)NC1OC(CO)C(O)C(O)C1O` (configuration not stated), the T/C runs as follows: (dose: 5.0 mg/kg/injection, schedule: Q04DX003 (sc), vehicle: saline) 91 % of control; (dose: 10.0 mg/kg/injection, schedule: Q04DX003 (sc), vehicle: saline) 69 % of control; (dose: 20.0 mg/kg/injection, schedule: Q04DX003 (sc), vehicle: saline) 40 % of control.
Regarding `Cc1ccccc1CN1C2=NCCN2C(=O)C2=C1CCN(S(=O)(=O)c1ccc(Cl)c(S(N)(=O)=O)c1)C2`, the T/C reads like this: under setting [4], 59 % of control; under setting [5], 122 % of control; under setting [6], 109 % of control.
Turning to `OCCN1CCN(CC/C=C2/c3ccccc3Sc3ccc(C(F)(F)F)cc32)CC1`, the T/C runs as follows: (dose: 30.0 mg/kg/injection, schedule: Q04DX003 (sc), vehicle: saline) 65 % of control; (dose: 60.0 mg/kg/injection, schedule: Q04DX003 (sc), vehicle: saline) 43 % of control; (dose: 120.0 mg/kg/injection, schedule: Q04DX003 (sc), vehicle: saline) 29 % of control and 43 % of control; (dose: 240.0 mg/kg/injection, schedule: Q04DX003 (sc), vehicle: saline) 17 % of control and 21 % of control.
Regarding `N#CC(=C1C=CC(=NO)C=C1)c1ccc(Cl)cc1`, the T/C (dose: 150.0 mg/kg/injection, schedule: Q04DX003 (sc), vehicle: saline with Tween-80) is 89 % of control; the T/C under setting [7] is 122 % of control; the T/C under setting [8] was 156 % of control.
Take `C=C(C)[C@@H]1CCc2c(O)c(O)c(=O)cc(C)c2C1`: the T/C runs as follows: (dose: 150.0 mg/kg/injection, schedule: Q04DX003 (sc), vehicle: saline) 91 % of control; under setting [4], 107 % of control; under setting [5], 89 % of control; under setting [6], 98 % of control.
As to `O=C(O)C1(C(=O)O)CCC1.[NH2-].[NH2-].[Pt+2]`, the T/C (dose: 12.5 mg/kg/injection, schedule: Q01DX010 (sc), vehicle: dextrose) is 2 % of control and 11 % of control; the T/C (dose: 50.0 mg/kg/injection, schedule: Q01DX010 (sc), vehicle: dextrose) is -87 % of control and -75 % of control.
Consider `CCCCCc1cc(O)c2c(c1)OC(C)(C)[C@@H]1CCC(C)=C[C@@H]21`, for which the T/C was 82 % of control (dose: 150.0 mg/kg/injection, schedule: Q04DX003 (sc), vehicle: other); 81 % of control (dose: 300.0 mg/kg/injection, schedule: Q04DX003 (sc), vehicle: other); 83 % of control (dose: 1200.0 mg/kg/injection, schedule: Q04DX003 (sc), vehicle: other).
Turning to `C[n+]1c(-c2cccc(OCCOCCOc3cccc(-c4c5cc(N)ccc5c5ccc(N)cc5[n+]4C)c3)c2)c2cc(N)ccc2c2ccc(N)cc21`, the T/C by setting is: (dose: 4.0 mg/kg/injection, schedule: Q04DX003 (sc), vehicle: water) 92 % of control; (dose: 64.0 mg/kg/injection, schedule: Q04DX003 (sc), vehicle: water) 73 % of control.
With `CCNC(C)(C)C(SSS)c1ccco1` (configuration not stated), the T/C reads like this: (dose: 150.0 mg/kg/injection, schedule: Q04DX003 (sc), vehicle: Klucel (hydroxypropylcellulose) (HPC)) 102 % of control; under setting [1], 97 % of control; under setting [2], 80 % of control; under setting [3], 86 % of control.
For `CCCN1COC(OCC)C(C)(C)C1` (configuration not stated), the T/C is, setting by setting: under setting [7], 98 % of control; under setting [8], 94 % of control; under setting [9], 73 % of control.
As to `O=C(Nc1cccc2c(OC(=O)C(Cl)Cl)c(N=Nc3ccc(S(=O)(=O)Nc4nccs4)cc3)cc(N=Nc3ccc(S(=O)(=O)Nc4nccs4)cc3)c12)C(Cl)Cl` (tested in a mixture with another compound), the T/C under setting [7] is 111 % of control; the T/C under setting [8] was 103 % of control; the T/C under setting [9] was 109 % of control; the T/C (dose: 2400.0 mg/kg/injection, schedule: Q04DX003 (sc), vehicle: saline with Tween-80) was 109 % of control.
Take `O=c1[nH]c(=O)n(C2CC(O)C(CO)O2)cc1C(F)(F)F` (configuration not stated): the T/C is, setting by setting: under setting [4], 77 % of control; under setting [5], 72 % of control; under setting [6], 43 % of control; (dose: 2400.0 mg/kg/injection, schedule: Q04DX003 (sc), vehicle: saline) 29 % of control.
For the compound `CC1(CO)C(O)CCC2(C)C1CCC1CC3CC12CCC3(O)CO` (configuration not stated), the T/C (dose: 50.0 mg/kg/injection, schedule: Q01DX010 (sc), vehicle: saline with Tween-80) is 56 % of control and the T/C (dose: 100.0 mg/kg/injection, schedule: Q01DX010 (sc), vehicle: saline with Tween-80) is 38 % of control.
Turning to `CC1(C)N=C(N)N=C(N)N1c1ccc(CCCCc2ccc(S(=O)(=O)F)cc2Cl)c(Cl)c1`, the T/C was 87 % of control (dose: 12.5 mg/kg/injection, schedule: Q01DX010 (sc), vehicle: suspension in saline); 77 % of control (dose: 25.0 mg/kg/injection, schedule: Q01DX010 (sc), vehicle: suspension in saline); 57 % of control (dose: 50.0 mg/kg/injection, schedule: Q01DX010 (sc), vehicle: suspension in saline).
On to `COc1cc2cc[n+](C)c(Cc3ccccc3)c2cc1OC`, for which the T/C is, setting by setting: (dose: 18.75 mg/kg/injection, schedule: Q04DX003 (sc), vehicle: Klucel (hydroxypropylcellulose) (HPC)) 90 % of control; (dose: 37.5 mg/kg/injection, schedule: Q04DX003 (sc), vehicle: Klucel (hydroxypropylcellulose) (HPC)) 115 % of control; (dose: 75.0 mg/kg/injection, schedule: Q04DX003 (sc), vehicle: Klucel (hydroxypropylcellulose) (HPC)) 58 % of control.
On to `CCCCCCCCNc1cc2c3c(c1)CCCN3CCC2`, for which the T/C (dose: 3.0 mg/kg/injection, schedule: Q04DX003 (sc), vehicle: Klucel (hydroxypropylcellulose) (HPC)) is 110 % of control; the T/C (dose: 6.0 mg/kg/injection, schedule: Q04DX003 (sc), vehicle: Klucel (hydroxypropylcellulose) (HPC)) was 74 % of control; the T/C (dose: 12.0 mg/kg/injection, schedule: Q04DX003 (sc), vehicle: Klucel (hydroxypropylcellulose) (HPC)) is 108 % of control; the T/C (dose: 24.0 mg/kg/injection, schedule: Q04DX003 (sc), vehicle: Klucel (hydroxypropylcellulose) (HPC)) is 51 % of control.
`COc1ccc(S(=O)(=O)N/N=C/C(=O)O)cc1`: the T/C (dose: 12.5 mg/kg/injection, schedule: Q01DX010 (sc), vehicle: saline with Tween-80) is 116 % of control.
Take `C/C=C(\C)c1cc(=O)c2c(C)cc3c(c2o1)C(=O)c1c(O)c(C2CC(C)(N(C)C)C(O)C(C)O2)cc(C2CC(N(C)C)C(O)C(C)O2)c1C3=O` (configuration not stated): the T/C is 41 % of control (dose: 2.0 mg/kg/injection, schedule: Q04DX003 (sc), vehicle: saline); 24 % of control (dose: 4.0 mg/kg/injection, schedule: Q04DX003 (sc), vehicle: saline); 28 % of control (dose: 8.0 mg/kg/injection, schedule: Q04DX003 (sc), vehicle: saline).
